Data from patent US9751882B2, “Diaryl[A, G]quinolizidine compound, preparation method therefor, pharmaceutical composition, and uses thereof” (SHANGHAI INSTITUTE OF MATERIA MEDICA, CHINESE ACADEMY OF …, priority 2012, dated 2017).

Legend:
[1] = biological target: T1, 5-HT1A receptor (Homo sapiens, UniProt P08908); assay: Radioligand binding affinity on 5-HT1A receptor ([3H]8-OH-DPAT); conditions: 5-HT1A receptor protein expressed in HEK-293 cells
T1 sequence (P08908 1-422): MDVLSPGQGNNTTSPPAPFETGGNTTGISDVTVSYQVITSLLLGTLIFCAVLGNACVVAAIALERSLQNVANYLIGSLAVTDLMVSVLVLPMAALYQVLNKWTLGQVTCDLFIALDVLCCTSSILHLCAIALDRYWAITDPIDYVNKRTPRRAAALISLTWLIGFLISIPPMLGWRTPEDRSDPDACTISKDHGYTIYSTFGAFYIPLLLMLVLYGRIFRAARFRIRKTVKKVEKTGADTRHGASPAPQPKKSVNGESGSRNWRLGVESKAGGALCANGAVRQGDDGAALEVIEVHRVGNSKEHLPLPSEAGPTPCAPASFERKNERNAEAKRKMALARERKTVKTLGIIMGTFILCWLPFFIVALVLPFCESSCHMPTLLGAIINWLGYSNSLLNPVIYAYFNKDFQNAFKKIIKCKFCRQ
Method: (§1) (1) Determination of the affinity of the diarylo[a,g]quinolizines of formula (I) and derivatives thereof on dopamine D1, dopamine D2, 5-HT1A and 5-HT2A receptors.
(§2) The compound of the invention at different concentrations (10^−5 M-10^−11 M), an isotope receptor ligand and a receptor protein were loaded into a reaction tube, incubated at 30° C. in a water bath for 60 min, and then terminated in a refrigerator. The mixture was filtered through suction filtration using GF/C glass fiber paper on a Millipore filter (millipore) cell sample collector, and dried. The resulting sample was placed into a 0.5 mL tube, added with 500 μL of liquid scintillation fluid, and counted for measuring the intensity of radioativity.
For 5-HT1A receptor: isotope receptor ligand [3H]8-OH-DPAT; 5-HT1A receptor protein expressed in HEK-293 cells;
(§3) Firstly, the above […] were dissolved in DMSO and then diluted with double distilled water to the appropriate concentration (10^−5 M-10^−11 M).
(§4) (+) Butaclamo was purchased from RBI Company, GF/C glass fiber filter paper was purchased from Whatman Co., liquid scintillation fluid (dopamine D1, D2 receptors)/liposoluble scintillation fluid (5-HT1A. 5-HT2A receptor), Beckman LS-6500 multi-function liquid scintillation counter.

[2] = biological target: T2, 5-HT2A receptor (Homo sapiens, UniProt P28223); assay: Radioligand binding affinity on 5-HT2A receptor ([3H]-Ketanserin); conditions: 5-HT2A receptor protein expressed in HEK-293 cells
T2 construct: expressed in transfected cells; host or cells: HEK-293
T2 sequence (P28223 whole entry): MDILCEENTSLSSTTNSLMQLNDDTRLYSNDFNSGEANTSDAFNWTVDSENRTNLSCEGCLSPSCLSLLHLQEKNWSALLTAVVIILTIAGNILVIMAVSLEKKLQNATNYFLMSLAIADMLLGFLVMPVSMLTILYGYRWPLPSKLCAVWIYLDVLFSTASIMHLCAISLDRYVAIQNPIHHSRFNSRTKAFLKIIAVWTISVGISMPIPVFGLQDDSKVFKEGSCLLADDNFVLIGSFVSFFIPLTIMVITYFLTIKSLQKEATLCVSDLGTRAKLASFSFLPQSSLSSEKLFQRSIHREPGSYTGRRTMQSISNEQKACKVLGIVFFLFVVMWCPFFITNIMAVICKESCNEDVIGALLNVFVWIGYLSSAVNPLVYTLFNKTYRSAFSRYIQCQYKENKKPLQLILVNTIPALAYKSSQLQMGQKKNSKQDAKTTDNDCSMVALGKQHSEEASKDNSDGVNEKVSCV
Method: as §1, §2
For 5-HT2A receptor: isotope receptor ligand [3H]-Ketanserin; 5-HT2A receptor protein expressed in HEK-293 cells;
as §3, §4

[3] = biological target: dopamine D2 receptor (Rattus norvegicus, UniProt P61169); assay: Radioligand binding affinity on dopamine D2 receptor ([3H]Spiperone); conditions: D2 receptor protein expressed in HEK-293 cells
dopamine D2 receptor, sequence (P61169 whole entry): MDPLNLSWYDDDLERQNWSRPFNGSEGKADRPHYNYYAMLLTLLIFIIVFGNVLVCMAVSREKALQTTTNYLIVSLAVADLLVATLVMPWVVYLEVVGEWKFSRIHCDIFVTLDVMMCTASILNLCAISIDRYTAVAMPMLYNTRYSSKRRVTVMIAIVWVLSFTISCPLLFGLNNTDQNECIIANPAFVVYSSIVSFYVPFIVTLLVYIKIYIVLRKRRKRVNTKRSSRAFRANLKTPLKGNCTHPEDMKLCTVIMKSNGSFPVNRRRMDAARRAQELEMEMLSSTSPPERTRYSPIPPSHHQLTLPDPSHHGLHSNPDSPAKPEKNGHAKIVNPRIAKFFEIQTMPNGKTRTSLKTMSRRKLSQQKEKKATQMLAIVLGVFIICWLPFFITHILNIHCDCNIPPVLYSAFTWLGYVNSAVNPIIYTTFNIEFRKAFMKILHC
Method: as §2, §3, §4

[4] = biological target: dopamine D1 receptor (Macaca mulatta, UniProt O77680); assay: Radioligand binding affinity on dopamine D1 receptor ([3H]-SCH23390); conditions: D1 receptor protein expressed in HEK-293 cells
dopamine D1 receptor, sequence (O77680 whole entry): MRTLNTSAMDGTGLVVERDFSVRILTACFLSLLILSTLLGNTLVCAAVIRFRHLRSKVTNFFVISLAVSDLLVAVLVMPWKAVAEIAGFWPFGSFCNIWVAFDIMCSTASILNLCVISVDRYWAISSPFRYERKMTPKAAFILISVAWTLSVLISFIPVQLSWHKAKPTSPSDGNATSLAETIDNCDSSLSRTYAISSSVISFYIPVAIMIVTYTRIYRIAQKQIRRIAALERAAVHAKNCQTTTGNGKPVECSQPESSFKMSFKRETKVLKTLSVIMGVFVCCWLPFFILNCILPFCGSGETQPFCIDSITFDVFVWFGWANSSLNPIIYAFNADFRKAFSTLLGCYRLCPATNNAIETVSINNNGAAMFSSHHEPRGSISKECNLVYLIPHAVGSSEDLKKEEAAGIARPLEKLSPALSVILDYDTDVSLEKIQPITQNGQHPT
Method: as §2, §3, §4

Compound | 5-HT1A receptor inhibition % [1] [%] | IC50 [1] [µM] | Ki [1] [µM] | 5-HT2A receptor inhibition % [2] [%] | D2 receptor inhibition % [3] [%] | IC50 [2] [µM] | Ki [2] [µM] | D1 receptor inhibition % [4] [%] | IC50 [4] [µM] | Ki [4] [µM] | IC50 [3] [µM] | Ki [3] [µM]
COc1cc2c(cc1OC)CN1CCc3c([nH]c4ccccc34)[C@@H]1C2 [AI001, (S)-2,3-dimethoxy-5,7,8,13,13b,14-hexahydroindolo [2′,3′:3,4]pyrido[1,2-b]isoquinoline] | 88.22 | 0.911 ± 0.13 | 0.728 ± 0.104 | 50.46 | – | – | – | – | – | – | – | –
COc1c(O)ccc2c1CN1CCc3sc(C)cc3[C@@H]1C2 [AS003, (S)-2-methyl-8-methoxy-9-hydroxy-4,7,12,12a-tetrahydro-5H-benzo[g]thieno[3,2-a]quinolizine] | 91.91 | 0.514 ± 0.111 | 0.405 ± 0.0871 | 90.43 | 40.31 | 2.23 ± 0.0465 | 1.07 ± 0.0224 | 99.80 | 0.074 ± 0.0043 | 0.0379 ± 0.00221 | – | –
COc1c(O)ccc2c1CN1CCc3sc(C)cc3[C@H]1C2 [AS004, (R)-2-methyl-8-methoxy-9-hydroxy-4,7,12,12a-tetrahydro-5H-benzo[g]thieno[3,2-a]quinolizine] | 51.69 | – | – | 44.24 | 6.97 | – | – | 86.32 | 0.23 ± 0.0448 | 0.115 ± 0.0224 | – | –
CCc1cc2c(s1)CCN1Cc3c(ccc(O)c3OC)C[C@@H]21 [AS005, (S)-2-ethyl-8-methoxy-9-hydroxy-4,7,12,12a-tetrahydro-5H-benzo[g]thieno[3,2-a]quinolizine] | 98.58 | 0.162 ± 0.0038 | 0.13 ± 0.00303 | 76.11 | 62.98 | – | – | 98.23 | 0.0868 ± 0.0113 | 0.0476 ± 0.00618 | – | –
COc1ccc2c(c1OC)CN1CCc3sccc3[C@@H]1C2 [AS022, (S)-8,9-dimethoxy-4,7,12,12a-tetrahydro-5H-benzo [g]thieno[3,2-a]quinolizine] | 6.60 | – | – | 32.31 | 5.21 | – | – | 69.25 | – | – | – | –
COc1ccc2c(c1OC)CN1CCc3sc(C)cc3[C@@H]1C2 [AS023, (S)-2-methyl-8,9-dimethoxy-4,7,12,12a-tetrahydro-5H-benzo[g]thieno[3,2-a]quinolizine] | 76.45 | – | – | 60.08 | 22.17 | – | – | 89.62 | 0.714 ± 0.0157 | 0.357 ± 0.00783 | – | –
COc1ccc(OC)c2c1C[C@H]1c3cc(C)sc3CCN1C2 [AS032, (S)-2-methyl-8,11-dimethoxy-4,7,12,12a-tetrahydro-5H-benzo[g]thieno[3,2-a]quinolizine] | 74.09 | – | – | 30.01 | 13.75 | – | – | 96.00 | 0.416 ± 0.0269 | 0.159 ± 0.0289 | – | –
COc1c(N)ccc2c1CN1CCc3sccc3[C@@H]1C2 [AS050, (S)-8-methoxy-9-amino-4,7,12,12a-tetrahydro-5H-benzo[g]thieno[3,2-a]quinolizine] | 49.26 | – | – | 74.25 | 22.63 | – | – | 99.02 | 1.52 ± 0.357 | 0.685 ± 0.0722 | – | –
COc1c(NC(C)=O)ccc2c1CN1CCc3sccc3[C@@H]1C2 [AS051, (S)-8-methoxy-9-acetylamino-4,7,12,12a-tetrahydro-5H-benzo[g]thieno[3,2-a]quinolizine] | 33.90 | – | – | 46.59 | 1.29 | – | – | 76.38 | – | – | – | –
COc1cc2c(cc1O)[C@@H]1Cc3sccc3CN1CC2 [DS001, (S)-2-hydroxy-3-methoxy-5,8,12,12a-tetrahydro-6H-benzo[a]thieno[3,2-g]quinolizine] | – | – | – | – | – | – | – | – | 0.172 ± 0.00849 | 0.087 ± 0.0043 | 0.396 ± 0.0682 | 0.088 ± 0.0152
CCc1cc2c(s1)C[C@H]1c3cc(O)c(OC)cc3CCN1C2 [DS003, (S)-2-hydroxy-3-methoxy-10-ethyl-5,8,12,12a-tetrahydro-6H-benzo[a]thieno[3,2-g]quinolizine] | 92.10 | 1.25 ± 0.237 | 0.998 ± 0.19 | 45.15 | 98.50 | – | – | 98.16 | 0.0481 ± 0.00068 | 0.0263 ± 0.00037 | 0.18 ± 0.0168 | 0.0408 ± 0.0038
CCCc1cc2c(s1)C[C@H]1c3cc(O)c(OC)cc3CCN1C2 [DS005, (S)-2-hydroxy-3-methoxy-10-n-propyl-5,8,12,12a-tetrahydro-6H-benzo[a]thieno[3,2-g]quinolizine] | 85.33 | 2.46 ± 0.286 | 1.97 ± 0.229 | 29.55 | 96.31 | – | – | 96.74 | 0.113 ± 0.0126 | 0.0617 ± 0.00688 | 0.171 ± 0.0095 | 0.0386 ± 0.00215
COc1cc2c(cc1O)[C@@H]1Cc3sc(CC(C)C)cc3CN1CC2 [DS006, (S)-2-hydroxy-3-methoxy-10-(2-methylpropyl)-5,8, 12,12a-tetrahydro-6H-benzo[a]thieno[3,2-g]quinolizine] | 83.71 | – | – | 50.31 | – | – | – | – | – | – | – | –
COc1cc2c(cc1O)[C@@H]1Cc3sc(CCC(C)C)cc3CN1CC2 [DS008, (S)-2-hydroxy-3-methoxy-10-(3-methylbutyl)-5,8,12, 12a-tetrahydro-6H-benzo[a]thieno[3,2-g]quinolizine] | – | – | – | – | 90.45 | – | – | 88.78 | – | – | 0.239 ± 0.0147 | 0.0795 ± 0.00483
COc1cc2c(cc1O)[C@@H]1Cc3sc(CCCCl)cc3CN1CC2 [DS015, (S)-2-hydroxy-3-methoxy-10-(3-chloropropyl)-5,8, 12,12a-tetrahydro-6H-benzo[a]thieno[3,2-g]quinolizine] | 92.24 | 0.148 ± 0.0286 | 0.119 ± 0.023 | – | 97.19 | – | – | 96.10 | 0.144 ± 0.00535 | 0.077 ± 0.00285 | 0.0551 ± 0.00689 | 0.0184 ± 0.0023
COc1cc2c(cc1O)[C@@H]1Cc3sc(CCCCCl)cc3CN1CC2 [DS016, (S)-2-hydroxy-3-methoxy-10-(4-chlorobutyl)-5,8,12, 12a-tetrahydro-6H-benzo[a]thieno[3,2-g]quinolizine] | – | – | – | – | 93.54 | – | – | 95.84 | 0.297 ± 0.0201 | 0.158 ± 0.0107 | 0.15 ± 0.0234 | 0.0499 ± 0.0078
